Assay results reported in patent US12310975B2, “Modulators of BCL6 proteolysis and associated methods of use” (Arvinas Operations, Inc., priority 2019, dated 2025).

Tests used:
BCL6 [1] = molecular target: T1, BCL6 (Homo sapiens (Human), UniProt P41182); test: BCL6 TR-FRET assay (BCL6-Avitag-Biotin / BCoR-Cy5 peptide); format: binding
In short: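 TR-FRET displacement assay: biotinylated His-SUMO-BCL6-Avitag (2 nM) pre-incubated 30 min at room temperature with compound (12-point 3-fold titration), then BCoR-Cy5 peptide (100 nM) and Eu-streptavidin (2 nM) added. Buffer: 50 mM HEPES pH 7.5, 125 mM NaCl, 0.01% Triton X, glutathione or DTT, 0.03% BSA. Read after 2 h.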

BCL6 [2] = molecular target: T1, BCL6; test: Immunofluorescence high content imaging of BCL6 degradation in T47D cells; format: cell-based; details: for Dmax: T47D; for DC50: class symbols A-D, read-out: EC50 (nM)*
In short: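 T47D cells were treated 3 days at 37 °C with an 11-point 3-fold dilution series (top 0.1 or 1 μM), then fixed, permeabilized and immunostained for BCL6 with Alexa-488 secondary, CellMask and Hoechst. BCL6 signal was imaged at 10×, 4 fields/well, with top-hat smoothing.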

[3] = class symbols A-D, read-out: IC50 (nM)***

| EC50 (BCL6 [1]) [nM] | IC50 (BCL6 [2]) [nM] | Dmax (BCL6 [2]) [%] | IC50 (BCL6 [1]; read-out: IC50) [nM] | Compound | also measured |
| --- | --- | --- | --- | --- | --- |
| – | – | – | – | CC(=O)COc1cc2cc(Nc3nc(N4CCN(C5CCN(CCCOc6ccc7c(c6)CN(C6CCC(=O)NC6=O)C7=O)C5)CC4)ncc3Cl)ccc2n(C)c1=O (stereo not shown) [compound 158, 3-(5-(3-(3-(4-(5-chloro-4-((1-methyl-2-oxo-3-(2-oxopropoxy)-1,2-dihydroquinolin-6-yl)amino)pyrimidin-2-yl)piperazin-1-yl)pyrrolidin-1-yl)propoxy)-1-oxoisoindolin-2-yl)piperidine-2,6-dione] | IC50 (BCL6 [1]; [3]): < 10 nM; Dmax (BCL6 [2]; maximum, class symbols A-C): < 50%; DC50 (BCL6 [2]): 10 to 50 nM |
| 10 to 50 | ≥ 100 | 50 to 70 | – | CC(=O)COc1cc2cc(Nc3nc(N4CCN(C)C(COc5ccc6c(c5)C(=O)N(C5CCC(=O)NC5=O)C6=O)C4)ncc3Cl)ccc2n(C)c1=O (stereo not shown) [compound 194, 5-((4-(5-chloro-4-((1-methyl-2-oxo-3-(2-oxopropoxy)-1,2-dihydroquinolin-6-yl)amino)pyrimidin-2-yl)-1-methylpiperazin-2-yl)methoxy)-2-(2,6-dioxopiperidin-3-yl)isoindoline-1,3-dione] | – |
| – | – | 50 to 70 | < 10 | CNC(=O)COc1cc2cc(Nc3nc(N4CCC5(CCN(CC6CCN(c7ccc8c(c7)C(=O)N(C7CCC(=O)NC7=O)C8=O)CC6)CC5)CC4)ncc3Cl)ccc2n(C(C)C)c1=O (stereo not shown) [compound 496, 2-{[6-({5-chloro-2-[9-({1-[2-(2,6-dioxopiperidin-3-yl)-1,3-dioxo-2,3-dihydro-1H-isoindol-5-yl]piperidin-4-yl}methyl)-3,9-diazaspiro[5.5]undecan-3-yl]pyrimidin-4-yl}amino)-2-oxo-1-(propan-2-yl)-1,2-dihydroquinolin-3-yl]oxy}-N-methylacetamide] | – |
| – | – | ≥ 70 | < 10 | CNC(=O)COc1cc2cc(Nc3nc(N4CCN(CC5CCC6(CC5)CN(c5cccc7c5C(=O)N(C5CCC(=O)NC5=O)C7=O)C6)CC4)ncc3Cl)ccc2n(C(C)C)c1=O (stereo not shown) [compound 452, 2-{[6-({5-chloro-2-[4-({2-[2-(2,6-dioxopiperidin-3-yl)-1,3-dioxo-2,3-dihydro-1H-isoindol-4-yl]-2-azaspiro[3.5]nonan-7-yl}methyl)piperazin-1-yl]pyrimidin-4-yl}amino)-2-oxo-1-(propan-2-yl)-1,2-dihydroquinolin-3-yl]oxy}-N-methylacetamide] | – |
| > 100 | ≥ 100 | – | – | CNC(=O)[C@H](C)Oc1cc2cc(Nc3nc(N4CCC(CN5CCN(c6ccc7c(c6)C(=O)N([C@H]6CCC(=O)NC6=O)C7=O)CC5)CC4)ncc3Cl)ccc2n(C)c1=O [compound 211, (S)-2-((6-((5-chloro-2-(4-((4-(2-((S)-2,6-dioxopiperidin-3-yl)-1,3-dioxoisoindolin-5-yl)piperazin-1-yl)methyl)piperidin-1-yl)pyrimidin-4-yl)amino)-1-methyl-2-oxo-1,2-dihydroquinolin-3-yl)oxy)-N-methylpropanamide] | – |
| – | – | ≥ 70 | < 10 | CNC(=O)COc1cc2cc(Nc3nc(N4CCC(CN5CCC6(CCN(c7ccc8c(c7)C(=O)N(C7CCC(=O)NC7=O)C8=O)C6)C5)CC4)ncc3Cl)ccc2n(C(C)C)c1=O (stereo not shown) [compound 534, 2-{[6-({5-chloro-2-[4-({7-[2-(2,6-dioxopiperidin-3-yl)-1,3-dioxo-2,3-dihydro-1H-isoindol-5-yl]-2,7-diazaspiro[4.4]nonan-2-yl}methyl)piperidin-1-yl]pyrimidin-4-yl}amino)-2-oxo-1-(propan-2-yl)-1,2-dihydroquinolin-3-yl]oxy}-N-methylacetamide] | – |
| 10 to 50 | 10 to 50 | 50 to 70 | – | CNC(=O)COc1cc2cc(Nc3nc(N4CCC(CN5CCN(c6ccc7c(c6)C(=O)N(C6CCC(=O)NC6=O)C7=O)CC5=O)CC4)ncc3Cl)ccc2n(C)c1=O (stereo not shown) [compound 196, 2-((6-((5-chloro-2-(4-((4-(2-(2,6-dioxopiperidin-3-yl)-1,3-dioxoisoindolin-5-yl)-2-oxopiperazin-1-yl)methyl)piperidin-1-yl)pyrimidin-4-yl)amino)-1-methyl-2-oxo-1,2-dihydroquinolin-3-yl)oxy)-N-methylacetamide] | – |
| – | – | ≥ 70 | < 10 | CNC(=O)COc1cc2cc(Nc3nc(N4CCN(C(C)(C)C5CCN(c6c(OC)ccc(C(=O)NC7CCC(=O)NC7=O)c6F)CC5)CC4)ncc3Cl)ccc2n(C)c1=O (stereo not shown) [compound 481, 3-[4-(2-{4-[5-chloro-4-({1-methyl-3-[(methylcarbamoyl)methoxy]-2-oxo-1,2-dihydroquinolin-6-yl}amino)pyrimidin-2-yl]piperazin-1-yl}propan-2-yl)piperidin-1-yl]-N-(2,6-dioxopiperidin-3-yl)-2-fluoro-4-methoxybenzamide] | – |
| – | – | ≥ 70 | < 10 | CNC(=O)COc1cc2cc(Nc3nc(N4CCN(CC5CCC6(CC5)CN(c5ccc(F)c7c5C(=O)N(C5CCC(=O)NC5=O)C7=O)C6)CC4)ncc3Cl)ccc2n(C(C)C)c1=O (stereo not shown) [compound 541, 2-{[6-({5-chloro-2-[4-({2-[2-(2,6-dioxopiperidin-3-yl)-7-fluoro-1,3-dioxo-2,3-dihydro-1H-isoindol-4-yl]-2-azaspiro[3.5]nonan-7-yl}methyl)piperazin-1-yl]pyrimidin-4-yl}amino)-2-oxo-1-(propan-2-yl)-1,2-dihydroquinolin-3-yl]oxy}-N-methylacetamide] | – |
| > 100 | 50 to 100 | < 50 | – | CC(=O)[C@H](C)Oc1cc2cc(Nc3nc(N4CCC(CN5CCN(c6ccc7c(c6)C(=O)N([C@@H]6CCC(=O)NC6=O)C7=O)CC5)CC4)ncc3Cl)ccc2n(C)c1=O [compound 219, 5-(4-((1-(5-chloro-4-((1-methyl-2-oxo-3-(((S)-3-oxobutan-2-yl)oxy)-1,2-dihydroquinolin-6-yl)amino)pyrimidin-2-yl)piperidin-4-yl)methyl)piperazin-1-yl)-2-((R)-2,6-dioxopiperidin-3-yl)isoindoline-1,3-dione] | – |
| – | – | – | – | CC(=O)COc1cc2cc(Nc3nc(C#CC4CCN(c5ccc6c(c5)C(=O)N(C5CCC(=O)NC5=O)C6=O)CC4)ncc3Cl)ccc2n(C)c1=O (stereo not shown) [compound 171, 5-(4-((5-chloro-4-((1-methyl-2-oxo-3-(2-oxopropoxy)-1,2-dihydroquinolin-6-yl)amino)pyrimidin-2-yl)ethynyl)piperidin-1-yl)-2-(2,6-dioxopiperidin-3-yl)isoindoline-1,3-dione] | IC50 (BCL6 [1]; [3]): 10 to 50 nM; Dmax (BCL6 [2]; maximum, class symbols A-C): < 50%; DC50 (BCL6 [2]): 10 to 50 nM |
| > 100 | ≥ 100 | – | – | Cn1cc(-c2cc3cc(Nc4nc(N5CCC(CN6CCN(c7ccc8c(c7)C(=O)N(C7CCC(=O)NC7=O)C8=O)CC6)CC5)ncc4Cl)ccc3n(C)c2=O)cn1 (stereo not shown) [compound 205, 5-(4-((1-(5-chloro-4-((1-methyl-3-(1-methyl-1H-pyrazol-4-yl)-2-oxo-1,2-dihydroquinolin-6-yl)amino)pyrimidin-2-yl)piperidin-4-yl)methyl)piperazin-1-yl)-2-(2,6-dioxopiperidin-3-yl)isoindoline-1,3-dione] | – |
| – | – | 50 to 70 | < 10 | CNC(=O)COc1cc2cc(Nc3nc(N4CCC(CN5CCC6(CC5)CCN(c5cccc7c5C(=O)N(C5CCC(=O)NC5=O)C7=O)C6)CC4)ncc3Cl)ccc2n(C(C)C)c1=O (stereo not shown) [compound 512, 2-{[6-({5-chloro-2-[4-({2-[2-(2,6-dioxopiperidin-3-yl)-1,3-dioxo-2,3-dihydro-1H-isoindol-4-yl]-2,8-diazaspiro[4.5]decan-8-yl}methyl)piperidin-1-yl]pyrimidin-4-yl}amino)-2-oxo-1-(propan-2-yl)-1,2-dihydroquinolin-3-yl]oxy}-N-methylacetamide] | – |
| – | – | 50 to 70 | 50 to 100 | Cn1c(=O)n(CCC(C)(C)O)c2cc(Nc3nc(N4CCC(CN5CCN(c6cccc7c6C(=O)N(C6CCC(=O)NC6=O)C7=O)CC5)CC4)ncc3Cl)ccc21 (stereo not shown) [compound 492, 4-(4-{[1-(5-chloro-4-{[3-(3-hydroxy-3-methylbutyl)-1-methyl-2-oxo-2,3-dihydro-1H-1,3-benzodiazol-5-yl]amino}pyrimidin-2-yl)piperidin-4-yl]methyl}piperazin-1-yl)-2-(2,6-dioxopiperidin-3-yl)-2,3-dihydro-1H-isoindole-1,3-dione] | – |
| – | – | ≥ 70 | < 10 | CNC(=O)COc1cc2cc(Nc3nc(N4CCN(CC5CCC6(CC5)CN(c5cc(F)cc7c5C(=O)N(C5CCC(=O)NC5=O)C7=O)C6)CC4)ncc3Cl)ccc2n(C(C)C)c1=O (stereo not shown) [compound 540, 2-{[6-({5-chloro-2-[4-({2-[2-(2,6-dioxopiperidin-3-yl)-6-fluoro-1,3-dioxo-2,3-dihydro-1H-isoindol-4-yl]-2-azaspiro[3.5]nonan-7-yl}methyl)piperazin-1-yl]pyrimidin-4-yl}amino)-2-oxo-1-(propan-2-yl)-1,2-dihydroquinolin-3-yl]oxy}-N-methylacetamide] | – |
| – | – | ≥ 70 | 50 to 100 | CNC(=O)COc1cc2cc(Nc3nc(N4CCC(O[C@H]5C[C@H](COc6ccc7c(c6)C(=O)N(C6CCC(=O)NC6=O)C7=O)N(C)C5)CC4)ncc3Cl)ccc2n(C(C)C)c1=O (stereo partly drawn) [compound 458, 2-[(6-{[5-chloro-2-(4-{[(3S,5R)-5-({[2-(2,6-dioxopiperidin-3-yl)-1,3-dioxo-2,3-dihydro-1H-isoindol-5-yl]oxy}methyl)-1-methylpyrrolidin-3-yl]oxy}piperidin-1-yl)pyrimidin-4-yl]amino}-2-oxo-1-(propan-2-yl)-1,2-dihydroquinolin-3-yl)oxy]-N-methylacetamide] | – |
